Results published in patent publication US20100015079A1, “Cosmetic Compositions for the Protection or Regeneration of Hair or Skin” (Institut Dr. Schrader, priority 2006, published 2010).

Assay: UVA-induced photon emission (chemiluminescence, ICL-H) of permanently waved hair tresses after treatment with rinse-off formulation
Design: species or system human
Conditions: Example 1; for UVA-induced photon emission (chemiluminescence), measure of hair damage: measured two days after treatment, damage by permanent wave alone 555%
Description: The effect of taurinamide hydrochloride on the regeneration of permanently waved hair was investigated. For this, three tresses of European hair (left natural, dense, color 7.0; Kerling) were subjected to a permanent wave treatment. The permanent wave solution had the following composition:
The tresses were washed for 1 min in a shaking machine (13.5% Texapon K12P in demineralized water) and rinsed for 2 minutes with lukewarm water. The tresses were saturated with permanent waving solution until drop-wet (10 ml for 3 tresses). After a contact time of 30 minutes, they were rinsed for 3 minutes with lukewarm water. The treatment with the permanent waving solution was repeated three times. The drop-wet tresses were then saturated with neutralizing solution (10 ml for 3 tresses). After a contact time of 10 minutes, they were rinsed for 3 minutes with lukewarm water.
To determine the effect of taurinamide, the following rinse-off formulations which comprised varying amounts of taurinamide hydrochloride were used:
The formulations were applied to the tresses from both sides using a paint brush on a glass plate (30 g for 3 tresses). After a contact time of 10 minutes, they were rinsed for 3 minutes with lukewarm water. The hair was then left to dry in the air.
Two days after the treatment, the UVA-induced photon emission (chemiluminescence) was measured. The photon emission is a measure of the hair damage. It was measured in accordance with the method described by S. Benard, H. Nerenz, M. Rohr and A. Schrader in IFSCC magazine Vol. 4 (2001), 185-189 (ICL-H (Induced Chemiluminescence of Human Hair) A new method for quantitative analysis of hair stress).

## Cl.NCCS(N)(=O)=O [Taurinamide, taurinamide hydrochloride]
0.1% by wt. taurinamide HCl rinse-off formulation 1.1, 10 min contact
  UVA-induced photon emission (chemiluminescence), measure of hair damage: 329%
0.5% by wt. taurinamide HCl rinse-off formulation 1.2, 10 min contact
  UVA-induced photon emission (chemiluminescence), measure of hair damage: 209%
1% by wt. taurinamide HCl rinse-off formulation 1.3, 10 min contact
  UVA-induced photon emission (chemiluminescence), measure of hair damage: 185%
5% by wt. taurinamide HCl rinse-off formulation 1.4, 10 min contact
  UVA-induced photon emission (chemiluminescence), measure of hair damage: 118%
Permanently waved hair, 0.1-5% taurinamide formulations
  effect of treatment on hair damage (in words): significantly reduces hair damage
